Measured values as given in US11091486B2, “Process for the preparation of pyrazolo[1,5-a]pyrimidines and salts thereof” (Array BioPharma Inc., priority 2016, dated 2021).

Assays:
[1] = system: Cryopreserved human hepatocytes; assay: In vitro metabolic stability in human hepatocytes (Example 34); assay type: in vitro ADME; conditions: 1 μM, predicted hepatic extraction ratio
Experimental: In vitro metabolic stabilities were studied at a concentration of 1 μM in the presence of liver microsomes and isolated hepatocytes.
A stock solution of the test compound was prepared at 10 mM (active compound) in DMSO. The in vitro stability of the test compound (1 μM) was assessed in the presence of hepatocytes as follows. Cryopreserved hepatocytes were thawed, isolated from shipping media and diluted to a density of 1×10^6 viable cells/mL, according to the supplier's guidelines, using Dulbecco's Modified Eagle Medium, 1×, high glucose (DMEM, Invitrogen, Carlsbad, Calif.). Viability was determined by trypan blue exclusion using a hemocytometer (3500 Hausser, VWR, West Chester, Pa.). […]
Data were acquired and peak areas were calculated for test compounds and the internal standard using Analyst 1.6.1 software (Sciex). […]
All calculations were performed using BioAssay Enterprise. The mean peak area ratios were calculated by averaging the peak area ratios (n=2) of test compound and the internal standard for each sample. Percent remaining was calculated by determining the ratio of the peak area ratio at each time point to the peak area ratio of the time-zero samples. The rate of loss of test compound (km) was determined by linear regression of—1n(f(t)) versus time. […] The t½ was determined dividing 1n(2) by km. […]

MDR1 (P-gp) = biological target: T1, MDR1 (P-gp) (Homo sapiens, UniProt P08183); assay: MDR1 efflux in MDR1 transfected LLC-PK1 cells (Example 35); assay type: in vitro ADME; conditions: pig, MDR1 transfected LLC-PK1 monolayers, read-out: MDRI efflux ratio
T1 construct: expressed in transfected cells; host or cells: LLC-PK1 cells
T1 sequence (P08183 whole entry): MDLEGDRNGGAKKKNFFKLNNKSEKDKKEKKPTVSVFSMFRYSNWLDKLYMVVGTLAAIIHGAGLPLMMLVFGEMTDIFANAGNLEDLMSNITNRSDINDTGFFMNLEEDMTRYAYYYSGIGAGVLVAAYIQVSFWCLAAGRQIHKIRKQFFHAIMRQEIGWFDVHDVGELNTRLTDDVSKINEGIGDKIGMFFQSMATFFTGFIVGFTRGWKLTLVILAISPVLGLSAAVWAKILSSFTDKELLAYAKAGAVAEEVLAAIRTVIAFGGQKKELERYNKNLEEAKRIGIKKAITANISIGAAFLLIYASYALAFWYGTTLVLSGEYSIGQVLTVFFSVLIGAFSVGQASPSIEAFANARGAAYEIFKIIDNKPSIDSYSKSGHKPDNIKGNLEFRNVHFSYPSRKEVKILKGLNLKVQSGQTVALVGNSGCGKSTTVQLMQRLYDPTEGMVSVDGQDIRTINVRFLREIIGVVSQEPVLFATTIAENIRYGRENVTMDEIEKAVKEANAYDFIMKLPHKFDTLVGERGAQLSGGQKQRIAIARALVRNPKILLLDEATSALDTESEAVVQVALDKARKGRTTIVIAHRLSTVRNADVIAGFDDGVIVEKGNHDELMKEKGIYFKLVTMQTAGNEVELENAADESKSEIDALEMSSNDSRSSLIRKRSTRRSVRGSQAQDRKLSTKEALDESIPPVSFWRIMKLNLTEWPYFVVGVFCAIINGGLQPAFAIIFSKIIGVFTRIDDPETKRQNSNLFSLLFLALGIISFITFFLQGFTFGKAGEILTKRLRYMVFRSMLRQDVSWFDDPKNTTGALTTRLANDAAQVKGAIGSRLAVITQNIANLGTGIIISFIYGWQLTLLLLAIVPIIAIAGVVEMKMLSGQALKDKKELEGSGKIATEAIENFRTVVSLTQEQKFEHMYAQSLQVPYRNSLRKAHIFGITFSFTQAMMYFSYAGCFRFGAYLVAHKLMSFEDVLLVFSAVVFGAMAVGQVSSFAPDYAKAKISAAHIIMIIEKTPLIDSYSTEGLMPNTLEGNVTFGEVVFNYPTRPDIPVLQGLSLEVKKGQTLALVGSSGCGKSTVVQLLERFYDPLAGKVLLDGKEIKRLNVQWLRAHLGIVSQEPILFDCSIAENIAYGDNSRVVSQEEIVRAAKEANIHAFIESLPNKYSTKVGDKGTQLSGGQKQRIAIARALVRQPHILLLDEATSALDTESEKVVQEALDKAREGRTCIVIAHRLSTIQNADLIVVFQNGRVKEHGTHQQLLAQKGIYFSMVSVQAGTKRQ
Experimental: Both LLC-PK1 and MDR1 transfected LLC-PK1 cells were cultured and plated according to manufacturer's recommendations with the exception that the passage media contained only 2% fetal bovine serum so as to extend passage time out to seven days.
Both positive and negative controls were used to assess functionality of P-gp efflux in the assay. Stock solutions for assay controls and the test article were prepared in DMSO for a final test concentrations of 10 μM. Final organic concentration in the assay was 1%. All dosing solutions contained 10 μM lucifer yellow to monitor LLC-PK1 cell monolayer integrity.
For the apical to basolateral determination (A to B), 75 μL of the test article in transport buffer were added to the apical side of the individual transwells and 250 μL of basolateral media, without compound or lucifer yellow, were added to each well. […] The plates were read using a Molecular Devices (Sunnyvale, Calif.) Gemini Fluorometer to evaluate the lucifer yellow concentrations at excitation/emission wavelengths of 425/535 nm. […] The plates were sealed and the contents of each well analyzed by LC-MS/MS. The compound concentrations were determined from the ratio of the peak areas of the compound to the internal standard (labetalol) in comparison to the dosing solution.
Permeability (Papp) was calculated in BioAssay v. […]

Row | SMILES | Human Hepatocyte Clearance (% ER) [1] | efflux ratio at 2 h, 10 μM (MDR1 (P-gp))
1 | C[C@@H]1CCc2ncc(F)cc2[C@H]2CCCN2c2ccn3ncc(c3n2)C(=O)N1 [Formula I] | 48 % ER | 14
2 | C[C@H]1CCc2ncc(F)cc2[C@H]2CCCN2c2ccn3ncc(c3n2)C(=O)N1 [formula I′] | 74 % ER | 5
